Legend:
Assay in all cases: Cell proliferation inhibition experiment, CellTiter-Glo (CTG) method
Type in all cases: cell-based
NCI-H1975 = settings: for IC50: Homo sapiens, NCI-H1975, 72 h, NCI-H1975 cells, CTG, 3 days; for A-431/NCI-H1975 Selectivity: ratio of A-431 IC50 to NCI-H1975 IC50
Description: (§1) Cell Proliferation Inhibition Experiment
(§2) Compounds were tested in the selected cell lines, and solvent is set as control, nine concentrations were detected with three parallel wells for each concentration.
(§3) 2. Reagents and Materials • 1) fetal bovine serum FBS (GIBCO, Cat #10099-141) • 2) CellTiter-Glo® Luminescent Cell Viability Assay (Promega, Cat #G7572) • 3) 96-well plate with flat clear bottom, black wall plates (Corning®, Cat #3340)
(§4) The first day: Incubation and plant of cells • 1) Cells in logarithmic growth phase were harvested and counted by cell counter. Cell viability was detected by trypan blue exclusion assay to ensure that the viability of each cell line was above 90%. • 2) Cell concentration was adjusted by diluting complete culture medium, and 90 μL cell suspension was added to a 96-well plate (T0 plate and drug plate to be tested) to make the cell density reach the specified concentration. • 3) Cells in 96-well plate were incubated overnight at condition of 37° C., 5% CO2 and 95% humidity.
(§5) The second day: Reading T0 plate • 1) 10 μL culture medium was added to T0 plate. • 2) CTG reagent was melt, while the cell plate was balanced to room temperature for 30 minutes. • 3) The same volume of CTG solution was added to each well. • 4) The cell plate was vibrated for 2 minutes on an orbital shaker to lyze the cells. • 5) The cell plate was placed at room temperature for 10 minutes to stabilize the cold light signal. • 6) The cold light value was read with EnVision.
(§6) Drug Addition • 1) Drug dilution. The compounds to be tested were dissolved and packaged, then a gradient elution was performed to obtain a solution diluted 10 times. • 2) Drug addition. […] drug solution was added into each well of the 96-well plate, which was inoculated cells, three parallel wells were set for each cell concentration.
(§7) The third day: reading plate at the terminal • 1) CTG reagent was melt, while the cell plate was balanced to room temperature for 30 minutes. • 2) The same volume of CTG solution was added to each well. • 3) The cell plate was vibrated for 2 minutes on an orbital shaker to lyze the cells. • 4) The cell plate was placed at room temperature for 10 minutes to stabilize the cold light signal. • 5) The cold light value was read with EnVision
(§8) Data were analyzed using GraphPad Prism 5.0 software, and non-linear S curve regression was used for fitting the data to give a dose-effect curve, IC50 value was calculated accordingly. Cell Survival Rate (%)=(Lumdrugs−Lumcontrol)/(Lumcell−Lumcontrol)×100%.

PC-9 = settings: Homo sapiens, PC-9, 72 h, PC-9 cells, 3 days
Description: as §1, §2, §3, §4, §5, §6, §7, §8

A-431 = settings: Homo sapiens, A-431, 72 h, A-431 cells, 3 days
Description: as §1, §2, §3, §4, §5
Drug Addition • 1) Drug dilution. The compounds to be tested were dissolved and packaged, then a gradient elution was performed to obtain a solution diluted 10 times. • 2) Drug addition. […] drug solution was added into each well of the 96-well plate, which was inoculated cells, three parallel wells were set for each cell concentration. The highest concentration of the compounds to be tested on A-431 was 30 μM, nine concentrations was set with 3 times dilution; while the highest concentration on NCI-H1975 and PC-9 was 1.111 μM, 9 concentrations was set with 3 times dilution. • 3) Culture. Cells in 96-well plates in which drugs have been added were cultured at condition of 37° C., 5% CO2 and 95% humidity for 3 days, and then CTG assay was performed respectively.
as §7, §8

Row | Structure (SMILES) | IC50 (NCI-H1975) [nM] | A-431/NCI-H1975 Selectivity (NCI-H1975) | IC50 (PC-9) [nM] | IC50 (A-431) [nM]
1 | C=CC(=O)Nc1cc(Nc2cc(-c3ccc4c(cnn4C)c3)ncn2)c(OC)cc1N(C)CCN1CCCC1 [compound 36] | 31.4 | 32.3 | 22 | 1010
2 | C=CC(=O)Nc1cc(Nc2cc(-c3ccc4c(cnn4C)c3)ncn2)c(OC)cc1N(C)CCN1CCCCC1 [compound 37] | 67.5 | 25.5 | 79.8 | 1720
3 | C=CC(=O)Nc1cc(Nc2cc(-c3ccc4c(cnn4C)c3)ncn2)c(OC)cc1N(C)CCN1CCOCC1 [compound 38] | 75.9 | 43.7 | 89.7 | 3310
4 | C=CC(=O)Nc1cc(Nc2cc(-c3ccc4c(cnn4C)c3)ncn2)c(OC)cc1N1CCCN(C)CC1 [compound 39] | 24.5 | 39.6 | 25.7 | 973
5 | C=CC(=O)Nc1cc(Nc2cc(-c3ccc4c(cnn4C)c3)ncn2)c(OC)cc1N(C)CCCN(C)C [compound 40] | 57 | 34.5 | 46.1 | 1960
6 | C=CC(=O)Nc1cc(Nc2cc(-c3ccc4cnn(C)c4c3)ncn2)c(OC)cc1N1CCN(C)C(C)C1 (centres unmarked) [compound 41] | 20.4 | 30.0 | 10.6 | 612
7 | C=CC(=O)Nc1cc(Nc2cc(-c3ccc4cnn(C)c4c3)ncn2)c(OC)cc1N1CC(C)N(C)C(C)C1 (centres unmarked) [compound 42] | 25.8 |  | 34.6 | 686
8 | C=CC(=O)Nc1cc(Nc2cc(-c3ccc4cnn(C)c4c3)ncn2)c(OC)cc1N1CCN(C)CC1 [compound 43] | 29.8 | 38.3 | 16.7 | 1140
9 | C=CC(=O)Nc1cc(Nc2cc(-c3ccc4cnn(C)c4c3)ncn2)c(OC)cc1N1CCN(C)C[C@H]1C [compound 44] | 102 | 15.7 | 32.8 | 1600
10 | C=CC(=O)Nc1cc(Nc2cc(-c3ccc4cnn(C)c4c3)ncn2)c(OC)cc1N1CCC(OC)CC1 [compound 45] | 137 | 19.0 | 23.6 | 2610
11 | C=CC(=O)Nc1cc(Nc2cc(-c3ccc4cnn(C)c4c3)ncn2)c(OC)cc1N1CCN(C2CCOCC2)CC1 [compound 46] | 82.8 | 15.1 | 32.7 | 1250
12 | C=CC(=O)Nc1cc(Nc2cc(-c3ccc4cnn(C)c4c3)ncn2)c(OC)cc1N1CCCN(C)CC1 [compound 47] | 49 | 13.7 | 34 | 671
13 | C=CC(=O)Nc1cc(Nc2cc(-c3ccc4cnn(C)c4c3)ncn2)c(OC)cc1N1CCN(CC)[C@@H](C)C1 [compound 48] | 67.2 | 20.7 | 49.7 | 1390
14 | C=CC(=O)Nc1cc(Nc2cc(-c3ccc4cnn(C)c4c3)ncn2)c(OC)cc1N1CCN(CC)[C@H](C)C1 [compound 49] | 85.6 | 17.2 | 88 | 1470
15 | C=CC(=O)Nc1cc(Nc2cc(-c3ccc4cnn(C)c4c3)ncn2)c(OC)cc1N1CCN(C)[C@@H](C)C1 [compound 50] | 59.2 | 18.2 | 47.5 | 1080
16 | C=CC(=O)Nc1cc(Nc2cc(-c3ccc4cnn(C)c4c3)ncn2)c(OC)cc1N1CCN(C)[C@H](C)C1 [compound 51] | 69.4 | 20.8 | 59.8 | 1450
17 | C=CC(=O)Nc1cc(Nc2cc(-c3ccc4cnn(C)c4c3)ncn2)c(OC)cc1N1CCC(N2CCN(C)CC2)CC1 [compound 52] | 41.7 | 14.7 | 39 | 615
18 | C=CC(=O)Nc1cc(Nc2cc(-c3ccc4cnn(C)c4c3)ncn2)c(OC)cc1N1CCC(C2CCN(C)CC2)CC1 [compound 53] | 151 | 8.3 | 67.9 | 1250
19 | C=CC(=O)Nc1cc(Nc2cc(-c3ccc4cnn(C)c4c3)ncn2)c(OC)cc1N(C)C1CCN(C)CC1 [compound 54] | 111 | 11.8 | 88.2 | 1310
20 | C=CC(=O)Nc1cc(Nc2cc(-c3ccc4cnn(C)c4c3)ncn2)c(OC)cc1N1CCC(N2CCOCC2)CC1 [compound 55] | 32.2 |  | 3.6 | 586
21 | C=CC(=O)Nc1cc(Nc2cc(-c3ccc4c(C)nn(C)c4c3)ncn2)c(OC)cc1N1CC(C)N(C)C(C)C1 (centres unmarked) [compound 56] | 113 | 10.9 | 56.7 | 1230
22 | C=CC(=O)Nc1cc(Nc2cc(-c3ccc4c(cnn4C)c3)ncn2)c(OC)cc1NCCN(C)C [compound 58] | 8.8 |  | 6.9 | 1130
23 | C=CC(=O)Nc1cc(Nc2cc(-c3ccc4c(cnn4C)c3)ncn2)c(OC)cc1N1CCN(CCN(C)C)CC1 [compound 59] | 10 |  | 8.9 | 1270
24 | C=CC(=O)Nc1cc(Nc2cc(-c3ccc4c(cnn4C)c3)ncn2)c(OC)cc1N(C)CCNC(C)(C)C [compound 61] | 17.8 |  | 9.4 | 1620
25 | C=CC(=O)Nc1cc(Nc2cc(-c3ccc4ncsc4c3)ncn2)c(OC)cc1N(C)CCN(C)C [compound 63] | 4.1 | 130.7 | 6.5 | 540
26 | C=CC(=O)Nc1cc(Nc2cc(-c3ccc4ncsc4c3)ncn2)c(OC)cc1N1CCC(N2CCN(C)CC2)CC1 [compound 64] | 13.1 | 52.6 | 5.4 | 690
27 | C=CC(=O)Nc1cc(Nc2cc(-c3ccc4nc(C)sc4c3)ncn2)c(OC)cc1N(C)CCN(C)C [compound 65] | 10.9 | 70.2 | 12 | 765
28 | C=CC(=O)Nc1cc(Nc2cc(-c3ccc4c(cnn4C)c3)ncn2)c(OCC)cc1N(C)C1CCN(C)C1 (centres unmarked) [compound 66] | 8.1 | 96.2 | 8.5 | 779

From US11352352B2, “Aminopyrimidine compound, preparation method therefor and use thereof” (BEIJING ADAMADLE BIOTECHNOLOGY LIMITED LIABILITY COMPANY, priority 2017, dated 2022)
